Calls of active or inactive are those of the source.
Legend:
Protein RecA = biological target: T1, Protein RecA (Mycobacterium tuberculosis, UniProt P9WHJ3); assay: Fluorescence Cell-Free Homogeneous Dose Retest to Identify Inhibitors of RecA-Intein Splicing Activity. [Related pubchem assays (depositor defined):AID2097, AID2223, AID489010, AID492950]; format: functional
T1 sequence (P9WHJ3 whole entry): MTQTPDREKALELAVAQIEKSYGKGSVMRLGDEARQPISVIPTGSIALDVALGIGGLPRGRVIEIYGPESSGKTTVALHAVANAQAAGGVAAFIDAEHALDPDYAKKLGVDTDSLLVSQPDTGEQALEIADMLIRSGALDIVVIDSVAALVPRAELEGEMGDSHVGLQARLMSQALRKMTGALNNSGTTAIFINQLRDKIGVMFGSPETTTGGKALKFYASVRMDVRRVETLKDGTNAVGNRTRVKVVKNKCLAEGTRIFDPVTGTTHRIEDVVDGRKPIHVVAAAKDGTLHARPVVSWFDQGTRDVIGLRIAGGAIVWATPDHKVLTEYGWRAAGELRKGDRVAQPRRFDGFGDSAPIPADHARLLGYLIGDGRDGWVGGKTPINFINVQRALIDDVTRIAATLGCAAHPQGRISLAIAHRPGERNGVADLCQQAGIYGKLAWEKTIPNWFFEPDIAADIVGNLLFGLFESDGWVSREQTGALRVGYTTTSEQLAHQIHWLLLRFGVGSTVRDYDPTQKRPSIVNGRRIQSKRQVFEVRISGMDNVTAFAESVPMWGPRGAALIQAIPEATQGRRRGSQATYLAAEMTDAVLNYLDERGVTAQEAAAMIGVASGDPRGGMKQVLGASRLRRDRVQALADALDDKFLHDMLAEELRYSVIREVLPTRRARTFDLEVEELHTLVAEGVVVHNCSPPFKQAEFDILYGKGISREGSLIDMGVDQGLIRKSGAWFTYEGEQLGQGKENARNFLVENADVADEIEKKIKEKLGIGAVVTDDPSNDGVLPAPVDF

[1] = biological target: T2, Apoptotic protease-activating factor 1 (Homo sapiens, UniProt O14727); format: functional
T2 sequence (O14727 whole entry): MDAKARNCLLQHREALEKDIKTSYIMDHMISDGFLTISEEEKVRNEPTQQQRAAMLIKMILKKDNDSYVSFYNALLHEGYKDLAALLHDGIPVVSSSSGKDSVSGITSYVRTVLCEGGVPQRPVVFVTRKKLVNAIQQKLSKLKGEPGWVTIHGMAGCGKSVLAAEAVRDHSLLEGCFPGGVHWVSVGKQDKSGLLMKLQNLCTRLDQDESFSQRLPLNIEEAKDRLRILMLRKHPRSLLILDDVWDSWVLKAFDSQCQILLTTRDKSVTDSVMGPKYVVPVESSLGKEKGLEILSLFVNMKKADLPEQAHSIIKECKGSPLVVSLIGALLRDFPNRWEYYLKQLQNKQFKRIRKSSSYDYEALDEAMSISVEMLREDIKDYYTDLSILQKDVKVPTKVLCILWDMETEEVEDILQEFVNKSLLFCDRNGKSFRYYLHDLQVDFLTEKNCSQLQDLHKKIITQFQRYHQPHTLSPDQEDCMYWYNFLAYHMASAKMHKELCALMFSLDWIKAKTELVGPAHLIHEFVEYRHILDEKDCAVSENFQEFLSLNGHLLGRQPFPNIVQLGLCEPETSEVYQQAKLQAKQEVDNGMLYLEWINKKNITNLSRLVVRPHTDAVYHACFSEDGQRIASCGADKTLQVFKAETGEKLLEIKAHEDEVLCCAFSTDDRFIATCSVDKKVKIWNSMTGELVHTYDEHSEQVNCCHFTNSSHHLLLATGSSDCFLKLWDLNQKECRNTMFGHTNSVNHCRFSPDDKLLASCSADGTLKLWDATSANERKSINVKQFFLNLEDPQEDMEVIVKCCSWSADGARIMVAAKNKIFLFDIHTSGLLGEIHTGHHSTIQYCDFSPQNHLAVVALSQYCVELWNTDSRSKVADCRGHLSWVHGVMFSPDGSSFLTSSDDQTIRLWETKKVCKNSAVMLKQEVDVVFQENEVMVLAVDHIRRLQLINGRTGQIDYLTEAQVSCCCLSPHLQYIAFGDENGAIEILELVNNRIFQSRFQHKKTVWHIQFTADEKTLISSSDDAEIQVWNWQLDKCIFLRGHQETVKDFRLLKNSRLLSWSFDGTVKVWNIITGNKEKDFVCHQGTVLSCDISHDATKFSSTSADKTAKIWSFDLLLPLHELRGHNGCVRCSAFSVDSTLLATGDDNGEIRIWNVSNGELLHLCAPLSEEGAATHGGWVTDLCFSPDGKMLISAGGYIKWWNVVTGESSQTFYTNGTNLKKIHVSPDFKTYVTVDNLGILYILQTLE

[2] = biological target: T3, Replicative DNA helicase DnaB (Mycobacterium tuberculosis, UniProt P9WMR3); assay: DnaB intein splicing inhibitors, dose response, biochemical, cell-free fluorescence (AID 449749); format: functional
T3 sequence (P9WMR3 whole entry): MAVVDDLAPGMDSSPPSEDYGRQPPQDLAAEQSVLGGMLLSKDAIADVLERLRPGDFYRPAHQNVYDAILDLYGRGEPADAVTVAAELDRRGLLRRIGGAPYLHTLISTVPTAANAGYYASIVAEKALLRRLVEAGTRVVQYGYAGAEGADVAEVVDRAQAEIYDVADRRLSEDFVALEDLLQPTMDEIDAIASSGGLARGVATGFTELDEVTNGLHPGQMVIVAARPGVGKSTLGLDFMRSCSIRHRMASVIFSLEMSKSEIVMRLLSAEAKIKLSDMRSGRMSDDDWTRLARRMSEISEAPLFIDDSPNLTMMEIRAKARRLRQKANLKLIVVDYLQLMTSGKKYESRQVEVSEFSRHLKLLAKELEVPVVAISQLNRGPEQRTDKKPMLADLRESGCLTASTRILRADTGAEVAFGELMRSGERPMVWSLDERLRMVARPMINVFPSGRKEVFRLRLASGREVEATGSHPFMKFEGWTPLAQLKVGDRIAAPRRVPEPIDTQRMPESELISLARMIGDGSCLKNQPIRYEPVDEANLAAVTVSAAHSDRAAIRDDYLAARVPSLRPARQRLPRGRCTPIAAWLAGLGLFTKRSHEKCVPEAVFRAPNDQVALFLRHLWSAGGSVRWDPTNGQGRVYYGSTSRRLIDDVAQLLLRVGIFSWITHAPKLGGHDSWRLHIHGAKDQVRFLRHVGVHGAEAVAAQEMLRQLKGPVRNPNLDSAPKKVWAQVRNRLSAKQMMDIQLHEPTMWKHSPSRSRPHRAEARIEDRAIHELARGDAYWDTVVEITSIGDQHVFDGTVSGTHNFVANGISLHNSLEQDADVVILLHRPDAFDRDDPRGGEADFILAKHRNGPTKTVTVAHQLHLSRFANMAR

Caspase-6 = biological target: T4, Caspase-6 (Homo sapiens, UniProt P55212); assay: human caspase-6 inhibitors, dose response, biochemical, VEID-R110 fluorescence, cherry-pick (AID 720632)
T4 sequence (P55212 whole entry): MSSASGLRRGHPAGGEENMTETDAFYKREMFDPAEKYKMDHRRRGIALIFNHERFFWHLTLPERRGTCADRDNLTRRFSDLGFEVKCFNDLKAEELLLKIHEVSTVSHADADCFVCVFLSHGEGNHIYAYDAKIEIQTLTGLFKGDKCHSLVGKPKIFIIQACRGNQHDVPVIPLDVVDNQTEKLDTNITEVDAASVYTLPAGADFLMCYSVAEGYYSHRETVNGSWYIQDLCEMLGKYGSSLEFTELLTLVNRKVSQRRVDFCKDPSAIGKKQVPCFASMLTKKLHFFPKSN

[3] = biological target: T5, Tyrosyl-DNA phosphodiesterase 2 (Homo sapiens, UniProt O95551); assay: human TDP2 enzyme inhibitors, dose response, biochemical, epi absorbance, IC50 (AID 743297)
T5 sequence (O95551 whole entry): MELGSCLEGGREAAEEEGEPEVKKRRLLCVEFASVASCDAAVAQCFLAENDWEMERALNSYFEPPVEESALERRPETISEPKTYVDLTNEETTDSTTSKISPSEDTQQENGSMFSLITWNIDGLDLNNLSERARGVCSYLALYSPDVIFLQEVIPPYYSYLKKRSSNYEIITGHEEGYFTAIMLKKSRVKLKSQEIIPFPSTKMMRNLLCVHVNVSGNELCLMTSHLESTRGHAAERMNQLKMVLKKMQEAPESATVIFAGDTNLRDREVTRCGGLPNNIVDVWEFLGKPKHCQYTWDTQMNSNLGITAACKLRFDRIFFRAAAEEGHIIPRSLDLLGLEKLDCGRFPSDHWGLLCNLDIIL

[4] = biological target: Dual specificity protein phosphatase 3 (Homo sapiens, UniProt P51452); assay: VHR phosphatase inhibition, dose response, selectivity assay for STEP inhibitor project, biochemical (AID 602374); format: functional; conditions: read-out: IC50_Mean
[5] = biological target: T6, Tyrosine-protein phosphatase non-receptor type 5 (Homo sapiens, UniProt P54829); assay: STEP phosphatase inhibitors, confirmation, biochemical, fluorescence intensity, uHTS hits (AID 602372); format: functional; conditions: read-out: IC50_Mean
T6 sequence (P54829 whole entry): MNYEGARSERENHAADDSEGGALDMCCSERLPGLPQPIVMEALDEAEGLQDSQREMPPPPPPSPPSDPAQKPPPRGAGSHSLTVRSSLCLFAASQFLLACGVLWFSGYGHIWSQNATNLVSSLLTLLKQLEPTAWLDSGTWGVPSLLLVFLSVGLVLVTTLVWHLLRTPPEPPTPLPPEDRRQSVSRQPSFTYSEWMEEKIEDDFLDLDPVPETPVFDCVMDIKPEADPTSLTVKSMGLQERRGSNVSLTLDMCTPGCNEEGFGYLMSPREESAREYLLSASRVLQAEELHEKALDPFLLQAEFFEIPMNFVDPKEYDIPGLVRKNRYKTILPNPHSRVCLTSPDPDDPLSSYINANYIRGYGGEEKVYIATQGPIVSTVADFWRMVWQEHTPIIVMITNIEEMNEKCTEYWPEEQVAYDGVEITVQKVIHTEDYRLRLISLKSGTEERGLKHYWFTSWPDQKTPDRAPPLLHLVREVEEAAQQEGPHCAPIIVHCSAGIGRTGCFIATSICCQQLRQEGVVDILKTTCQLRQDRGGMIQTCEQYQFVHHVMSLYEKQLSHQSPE

[6] = biological target: T7, Tyrosine-protein phosphatase non-receptor type 11 (Homo sapiens, UniProt Q06124); assay: SHP2 phosphatase inhibition, dose response, selectivity assay for STEP inhibitor project, biochemical (AID 602367); format: functional; conditions: read-out: IC50_Mean
T7 sequence (Q06124 whole entry): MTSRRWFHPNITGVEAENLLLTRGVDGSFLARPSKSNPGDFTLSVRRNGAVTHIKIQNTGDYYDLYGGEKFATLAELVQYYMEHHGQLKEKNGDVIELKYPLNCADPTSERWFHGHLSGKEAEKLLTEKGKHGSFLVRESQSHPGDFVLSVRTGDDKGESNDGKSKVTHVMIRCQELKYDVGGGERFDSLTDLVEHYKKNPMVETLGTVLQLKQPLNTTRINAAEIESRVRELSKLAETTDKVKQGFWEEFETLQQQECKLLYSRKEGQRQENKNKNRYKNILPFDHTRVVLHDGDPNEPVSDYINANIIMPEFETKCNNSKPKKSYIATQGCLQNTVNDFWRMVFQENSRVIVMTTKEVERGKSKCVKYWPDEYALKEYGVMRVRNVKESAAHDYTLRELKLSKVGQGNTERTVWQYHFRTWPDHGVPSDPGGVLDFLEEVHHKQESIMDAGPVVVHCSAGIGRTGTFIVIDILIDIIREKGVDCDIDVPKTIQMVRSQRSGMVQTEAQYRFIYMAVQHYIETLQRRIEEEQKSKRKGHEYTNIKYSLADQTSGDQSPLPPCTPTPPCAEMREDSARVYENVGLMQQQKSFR

[7] = biological target: T8, Carboxy-terminal domain RNA polymerase II polypeptide A small phosphatase 1 (Homo sapiens, UniProt Q9GZU7); assay: inhibitors of CTDSP1, concentration-response testing, biochemical assay, absorbance-based, actives from ultra-high-throughput screening (AID 540297); format: functional
T8 sequence (Q9GZU7 whole entry): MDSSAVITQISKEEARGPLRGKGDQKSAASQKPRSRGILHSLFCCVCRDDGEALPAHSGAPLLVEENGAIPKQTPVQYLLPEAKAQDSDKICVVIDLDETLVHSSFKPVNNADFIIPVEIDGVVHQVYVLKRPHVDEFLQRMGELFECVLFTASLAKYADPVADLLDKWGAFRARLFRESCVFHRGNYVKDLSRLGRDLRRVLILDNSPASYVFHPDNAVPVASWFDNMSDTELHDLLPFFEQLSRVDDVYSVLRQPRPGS

Dual specificity protein phosphatase 3, sequence (P51452 whole entry): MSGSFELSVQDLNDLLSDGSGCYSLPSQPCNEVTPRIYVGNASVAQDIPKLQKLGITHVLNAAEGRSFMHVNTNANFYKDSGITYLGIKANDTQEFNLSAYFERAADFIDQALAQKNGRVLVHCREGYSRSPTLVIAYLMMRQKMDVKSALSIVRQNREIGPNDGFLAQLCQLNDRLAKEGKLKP

SMILES	EC50 (Protein RecA)	IC50 [1]	AC50 [2]	AC50 (Caspase-6)	IC50 [3]	IC50 [4]	IC50 [5]	IC50 [6]	IC50 [7]
COc1ccc(NC2=C(NCCO)C(=O)c3ccccc3C2=O)cc1	21.9 µM (active)	29.4 µM (active)	31.4 µM (active)	6.05 µM (active)	88.7 µM (inactive)	–	–	–	–
Cc1nn2c(-c3ccncc3)nnc2c2ccccc12	–	5.15 µM (active)	–	–	–	–	–	–	–
Cc1c(CC(=O)NCCCCCC(=O)O)c(=O)oc2c(C)c3oc4c(c3cc12)CCCC4	–	–	–	–	–	3.9 µM (active)	36.4 µM (inactive)	5.36 µM (active)	4.72 µM (active)
